Legend:
[1] = Phase Ib open-label multi-center study, pharmacokinetics; format: in vivo, human; conditions: 240 mg BID with FOLFIRI, with and without bevacizumab
Experimental: (§1) The effects of 2-acetylnaphtho[2,3-b]furan-4,9-dione in combination with FOLFIRI in patients with advanced gastrointestinal cancer, including CRC and gastric cancer, were studied in phase lb open-label, multi-center studies. In one phase lb open label, multi-center clinical study, the safety, tolerability, and preliminary anti-tumor activity of 2-acetylnaphtho[2,3-b]furan-4,9-dione in combination with FOLFIRI, with and without bevacizumab, were assessed in adult patients with advanced gastrointestinal cancer, including CRC and gastric cancer. In addition, the pharmacokinetic profile and the pharmacodynamics (biomarkers) of 2-acetylnaphtho[2,3-b]furan-4,9-dione in combination with FOLFIRI, with and without bevacizumab, were studied, and the recommended phase II dose (RP2D) of 2-acetylnaphtho[2,3-b]furan-4,9-dione and FOLFIRI, with or without bevacizumab, were evaluated.
Pharmacokinetics and pharmacodynamics were evaluated and objective tumor response was assessed every 8 weeks using Response Evaluation Criteria In Solid Tumors (RECIST 1.1).

[2] = Phase Ib open-label multi-center study, safety and tolerability (adverse events); format: in vivo, human; conditions: 240 mg BID with FOLFIRI, with and without bevacizumab
Experimental: as §1
Patients received continuous oral administration of 2-acetylnaphtho[2,3-b]furan-4,9-dione twice daily in 28 day cycles. A FOLFIRI regimen was administered (with or without bevacizumab depending on patient) every 14 days. Specifically, 2-acetylnaphtho[2,3-b]furan-4,9-dione was administered at a dose of 240 mg BID in combination with FOLFIRI (5-FU 400 mg/m^2 bolus with 2400 mg/m^2, irinotecan 180 mg/m^2, and leucovorin 400 mg/m^2 infusion) with or without bevacizumab 5 mg/kg, administered bi-weekly until progression of disease, unacceptable toxicity, or other discontinuation criterion was met.

p-Stat3 = assay: Cancer stemness biomarker immunofluorescence in cancer xenograft tumors: p-Stat3; format: in vivo, mouse xenograft
Experimental: (§2) The effects of 2-acetylnaphtho[2,3-b]furan-4,9-dione, a compound of formula (I), on cancer stem cell markers was examined in cancer xenograft models with and without irinotecan. Human cancer cells were subcutaneously implanted into the right flank of 5-7 weeks old female athymic nude mice. When tumor size reached 200 mm^3, animals were treated with 2-acetylnaphtho[2,3-b]furan-4,9-dione, irinotecan, or a combination of 2-acetylnaphtho[2,3-b]furan-4,9-dione and irinotecan. Tumors were harvested after first dosing.
(§3) The harvested tissues were fixed in 3.7% neutral buffered formaldehyde at 4° C. for overnight. The paraffin was embedded, cut to about 5 microns, and affixed onto positively-charged slides. After being baked and de-paraffinized, the slides with tumor or control tissues were incubated in 10 mM Sodium Citrate (pH 6.0) for 10 minutes. After antigen retrieval, slides were probed with primary antibodies P-STAT3 (rabbit, Cell Signaling, 1:100), 13-Catenine (mouse, Santa Cruz, 1:400) at 4° C. overnight, and then Alexa Fluor fluorescent dyes-conjugated secondary antibodies (1:500, Invitrogen). After mounting, the slides with ProLong mounting medium with DAPI (Invitrogen) were examined under a Zeiss fluorescence microscope with 20× objective, and analyzed with Zen software.

β-catenin = assay: Cancer stemness biomarker immunofluorescence in cancer xenograft tumors: β-catenin; format: in vivo
Experimental: as §2, §3

cancer stem cells = assay: Effect on cancer stem cells with and without 5-fluorouracil; format: cell-based; conditions: FIG. 5
Text: The effects of 2-acetylnaphtho[2,3-b]furan-4,9-dione was examined in cancer stem cells with and without 5-fluorouracil by using methods similar to those disclosed in U.S. pre-grant Publication No. 2012/0252763, Example 3.

[3] = N = 18, possibly/probably/definitely related
[4] = added to irinotecan, cancer xenograft tumor model, FIG. 6
[5] = alone, human colon cancer xenograft tumor (SW480) in nude mice, FIG. 4

## CC(=O)c1cc2c(o1)C(=O)c1ccccc1C2=O [2-acetylnaphtho[2,3-b]furan-4,9-dione]
[1]
  pharmacokinetic interactions: No significant pharmacokinetic interactions were observed
[2]
  Dehydration Grade 3 related to protocol therapy, number of patients: 1
  dose limiting toxicity or new adverse events: No dose limiting toxicity or new adverse events were seen
  safety of the combination: safely combined
[2]; [3]
  Abdominal Pain Grade 1, number of subjects: 7
  Abdominal Pain Grade 1, percent of total subjects: 38.9%
  Abdominal Pain Grade 2, number of subjects: 4
  Abdominal Pain Grade 2, percent of total subjects: 22.2%
  Abdominal Pain Grade 3, number of subjects: 0
  Abdominal Pain Grade 3, percent of total subjects: 0.0%
  Alopeda Grade 1, number of subjects: 4
  Alopeda Grade 1, percent of total subjects: 22.2%
  Alopeda Grade 2, number of subjects: 0
  Alopeda Grade 2, percent of total subjects: 0.0%
  Alopeda Grade 3, number of subjects: 0
  Alopeda Grade 3, percent of total subjects: 0.0%
  Anemia Grade 1, number of subjects: 2
  Anemia Grade 1, percent of total subjects: 11.1%
  Anemia Grade 2, number of subjects: 2
  Anemia Grade 2, percent of total subjects: 11.1%
  Anemia Grade 3, number of subjects: 0
  Anemia Grade 3, percent of total subjects: 0.0%
  Anorexia Grade 1, number of subjects: 12
  Anorexia Grade 1, percent of total subjects: 66.7%
  Anorexia Grade 2, number of subjects: 3
  Anorexia Grade 2, percent of total subjects: 16.7%
  Anorexia Grade 3, number of subjects: 0
  Anorexia Grade 3, percent of total subjects: 0.0%
  Diarrhea Grade 1, number of subjects: 18
  Diarrhea Grade 1, percent of total subjects: 100.0%
  Diarrhea Grade 2, number of subjects: 9
  Diarrhea Grade 2, percent of total subjects: 50.0%
  Diarrhea Grade 3, number of subjects: 3
  Diarrhea Grade 3, percent of total subjects: 16.7%
  Dry Mouth Grade 1, number of subjects: 2
  Dry Mouth Grade 1, percent of total subjects: 11.1%
  Dry Mouth Grade 2, number of subjects: 1
  Dry Mouth Grade 2, percent of total subjects: 5.6%
  Dry Mouth Grade 3, number of subjects: 0
  Dry Mouth Grade 3, percent of total subjects: 0.0%
  Dysgeusia Grade 1, number of subjects: 5
  Dysgeusia Grade 1, percent of total subjects: 27.8%
  Dysgeusia Grade 2, number of subjects: 0
  Dysgeusia Grade 2, percent of total subjects: 0.0%
  Dysgeusia Grade 3, number of subjects: 0
  Dysgeusia Grade 3, percent of total subjects: 0.0%
  Fatigue Grade 1, number of subjects: 12
  Fatigue Grade 1, percent of total subjects: 66.7%
  Fatigue Grade 2, number of subjects: 10
  Fatigue Grade 2, percent of total subjects: 55.6%
  Fatigue Grade 3, number of subjects: 3
  Fatigue Grade 3, percent of total subjects: 16.7%
  Flatulence Grade 1, number of subjects: 2
  Flatulence Grade 1, percent of total subjects: 11.1%
  Flatulence Grade 2, number of subjects: 1
  Flatulence Grade 2, percent of total subjects: 5.6%
  Flatulence Grade 3, number of subjects: 0
  Flatulence Grade 3, percent of total subjects: 0.0%
  Nausea Grade 1, number of subjects: 14
  Nausea Grade 1, percent of total subjects: 77.8%
  Nausea Grade 2, number of subjects: 6
  Nausea Grade 2, percent of total subjects: 33.3%
  Nausea Grade 3, number of subjects: 0
  Nausea Grade 3, percent of total subjects: 0.0%
  Neutropenia Grade 1, number of subjects: 3
  Neutropenia Grade 1, percent of total subjects: 16.7%
  Neutropenia Grade 2, number of subjects: 2
  Neutropenia Grade 2, percent of total subjects: 11.1%
  Neutropenia Grade 3, number of subjects: 0
  Neutropenia Grade 3, percent of total subjects: 0.0%
  Platelet Count Grade 1, number of subjects: 2
  Platelet Count Grade 1, percent of total subjects: 11.1%
  Platelet Count Grade 2, number of subjects: 0
  Platelet Count Grade 2, percent of total subjects: 0.0%
  Platelet Count Grade 3, number of subjects: 0
  Platelet Count Grade 3, percent of total subjects: 0.0%
  Urine Discolorization Grade 1, number of subjects: 4
  Urine Discolorization Grade 1, percent of total subjects: 22.2%
  Urine Discolorization Grade 2, number of subjects: 0
  Urine Discolorization Grade 2, percent of total subjects: 0.0%
  Urine Discolorization Grade 3, number of subjects: 0
  Urine Discolorization Grade 3, percent of total subjects: 0.0%
  Vomiting Grade 1, number of subjects: 11
  Vomiting Grade 1, percent of total subjects: 61.1%
  Vomiting Grade 2, number of subjects: 3
  Vomiting Grade 2, percent of total subjects: 16.7%
  Vomiting Grade 3, number of subjects: 0
  Vomiting Grade 3, percent of total subjects: 0.0%
  Weight Loss Grade 1, number of subjects: 2
  Weight Loss Grade 1, percent of total subjects: 11.1%
  Weight Loss Grade 2, number of subjects: 0
  Weight Loss Grade 2, percent of total subjects: 0.0%
  Weight Loss Grade 3, number of subjects: 0
  Weight Loss Grade 3, percent of total subjects: 0.0%
p-Stat3; [4]
  irinotecan-enhanced staining for stem cell marker p-Stat3: attenuated
p-Stat3; [5]
  expression of p-Stat3 stem cell marker: dramatically reduced
β-catenin; [4]
  irinotecan-enhanced staining for stem cell marker β-catenin: attenuated
β-catenin; [5]
  expression of β-catenin stem cell marker: dramatically reduced
Cancer stem cells; added to 5-fluorouracil
  5-fluorouracil-induced increase in the number of cancer stem cells: attenuated
Cancer stem cells; combination with 5-fluorouracil
  effect of the combination on cancer stem cell growth: greater than additive effect

Reference: patent US20180250260A1, “METHODS FOR TREATING CANCER” (BOSTON BIOMEDICAL, INC., priority 2015, published 2018)
